According to patent US20230203098A1, “HUMAN TRANSFERRIN RECEPTOR BINDING PEPTIDE” (priority 2020, published 2023):
Like-named read-outs stand apart in the source and are kept apart here. Blank lines part the entries; values can stand above or below the molecule they belong to. Where a SMILES comes first, the peptide text is derived from it. Bridges are numbered along the chain shown (N, C = ends). [ ]: non-standard residue; d: D form. The star is where a group is joined. X2 = O=C(O)c1cc(C(=O)*)ccc1-c1c2ccc(=O)cc-2oc2cc(O)ccc12; PEG12 = NCCOCCOCCOCCOCCOCCOCCOCCOCCOCCOCCOCCOCCC(=O)O; NMePhe(3-Cl) = CN[C@@H](Cc1cccc(Cl)c1)C(=O)O; NMeW = CN[C@@H](Cc1c[nH]c2ccccc12)C(=O)O; NMeY = CN[C@@H](Cc1ccc(O)cc1)C(=O)O; NMeH = CN[C@@H](Cc1c[nH]cn1)C(=O)O; PEG4 = NCCOCCOCCOCCOCCC(=O)O; Nva = CCC[C@H](N)C(=O)O

Target: transferrin receptor (hTfR) (Homo sapiens, UniProt P02786)
Sequence (P02786 whole entry): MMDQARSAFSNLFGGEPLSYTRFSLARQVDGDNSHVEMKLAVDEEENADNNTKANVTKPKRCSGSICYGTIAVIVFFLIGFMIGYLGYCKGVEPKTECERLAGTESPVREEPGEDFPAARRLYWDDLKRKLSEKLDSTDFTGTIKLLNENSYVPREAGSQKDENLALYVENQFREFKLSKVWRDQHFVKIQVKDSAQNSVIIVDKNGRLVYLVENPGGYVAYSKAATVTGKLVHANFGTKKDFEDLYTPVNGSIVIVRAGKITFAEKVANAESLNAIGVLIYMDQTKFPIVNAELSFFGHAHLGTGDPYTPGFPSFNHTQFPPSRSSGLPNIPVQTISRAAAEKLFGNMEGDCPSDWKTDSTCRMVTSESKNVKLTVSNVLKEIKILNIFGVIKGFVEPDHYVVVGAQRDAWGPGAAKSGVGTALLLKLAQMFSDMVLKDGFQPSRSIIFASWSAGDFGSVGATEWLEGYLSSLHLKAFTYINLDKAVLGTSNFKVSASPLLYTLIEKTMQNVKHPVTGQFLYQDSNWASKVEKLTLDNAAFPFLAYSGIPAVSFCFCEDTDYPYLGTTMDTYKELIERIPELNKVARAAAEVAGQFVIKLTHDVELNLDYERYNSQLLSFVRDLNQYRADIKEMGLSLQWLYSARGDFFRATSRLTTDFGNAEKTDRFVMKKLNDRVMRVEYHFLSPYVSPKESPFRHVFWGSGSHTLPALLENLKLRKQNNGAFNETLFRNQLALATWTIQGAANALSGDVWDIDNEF
Assay: Intermolecular interaction evaluation test between transferrin receptor (hTfR) and peptide by surface plasmon resonance (SPR)
Type: binding
Procedure, shortened: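 hTfR captured on Ni-NTA chip then amine-coupled; peptides run single-cycle kinetics at 5–100 nM in 10 mM HEPES pH 8.0, 150 mM NaCl, 0.05% Tween 20, 0.1% BSA, 1.0% DMSO. KD from least-squares curve fitting of sensorgrams.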

[1] = SPR, linker and payload (FITC, VivoTag) conjugates, read-out: KD
[2] = binding to hTfR by SPR, Table 2 peptides, read-out: KD value (SPR) class
[3] = SPR, peptides, linker-added peptides and FITC conjugates, Patent ID 203-230, read-out: KD
[4] = surface plasmon resonance, peptide vs hTfR, read-out: KD value for hTfR by SPR (class symbol)

SMILES: CC[C@H](C)[C@@H]1NC(=O)[C@H](CCCNC(=N)N)NC(=O)[C@H](CC(N)=O)NC(=O)[C@H](C)NC(=O)CSC[C@@H](C(=O)NCCOCCOCCOCCOCCOCCOCCOCCOCCOCCOCCOCCOCCC(=O)N[C@@H](CCCCNC(=O)c2ccc(-c3c4ccc(=O)cc-4oc4cc(O)ccc34)c(C(=O)O)c2)C(N)=O)NC(=O)[C@H](Cc2ccc(O)cc2)N(C)C(=O)[C@H](CCCNC(=N)N)NC(=O)[C@@H]2CCCN2C(=O)[C@H]([C@@H](C)CC)NC(=O)[C@H]([C@@H](C)CC)NC(=O)[C@H](Cc2ccc(O)cc2)NC(=O)[C@H](Cc2ccc(O)cc2)NC(=O)[C@H](CC(N)=O)NC(=O)[C@H](Cc2c[nH]c3ccccc23)NC(=O)[C@H](C(C)C)NC(=O)[C@H](Cc2ccccc2)NC(=O)[C@H](C(C)C)NC1=O [compound 153] ({CH2CO}-ANRIVFVWNYYIIPR[NMeY]C[PEG12]K(X2)-NH2; thioether N-17)
- Kd [1]: 1 to 100 nM

SMILES: CC[C@H](C)[C@@H]1NC(=O)[C@H](Cc2ccc(OC)cc2)NC(=O)[C@H](Cc2ccc(O)cc2)NC(=O)[C@H](CC(N)=O)NC(=O)[C@H](Cc2c[nH]c3ccccc23)N(C)C(=O)[C@H](C(C)C)NC(=O)[C@H](Cc2cccc(Cl)c2)N(C)C(=O)[C@H](C(C)C)NC(=O)[C@H](C)N(C)C(=O)CSC[C@@H](C(N)=O)NC(=O)[C@H](Cc2ccc(O)cc2)N(C)C(=O)[C@H](Cc2ccccc2)NC(=O)[C@H](CCCNC(=N)N)NC(=O)[C@H](CCCCN)NC(=O)[C@H]([C@@H](C)CC)NC1=O [compound 213]
- Kd [3]: 1 to 100 nM

SMILES: CC[C@H](C)[C@@H]1NC(=O)[C@H](Cc2ccc(O)cc2)NC(=O)[C@H](Cc2ccc(O)cc2)NC(=O)[C@H](CC(N)=O)NC(=O)[C@H](Cc2c[nH]c3ccccc23)NC(=O)[C@H](C(C)C)NC(=O)[C@H](Cc2ccccc2)NC(=O)[C@H](C(C)C)NC(=O)[C@H](C)NC(=O)CSC[C@@H](C(=O)NCCOCCOCCOCCOCCOCCOCCOCCOCCOCCOCCOCCOCCC(=O)N[C@@H](CCCCNC(=O)c2ccc(-c3c4ccc(=O)cc-4oc4cc(O)ccc34)c(C(=O)O)c2)C(N)=O)NC(=O)[C@H](CC(=O)O)NC(=O)[C@H](CCCNC(=N)N)NC(=O)[C@@H]2CCCN2C(=O)[C@H](C(C)C)NC1=O [compound 209] ({CH2CO}-AVFVWNYYIVPRDC[PEG12]K(X2)-NH2; thioether N-14)
- Kd [3]: 1 to 100 nM

SMILES: CC[C@H](C)[C@@H]1NC(=O)[C@H](Cc2ccc(OC)cc2)NC(=O)[C@H](Cc2ccc(O)cc2)NC(=O)[C@H](CC(N)=O)NC(=O)[C@H](Cc2c[nH]c3ccccc23)N(C)C(=O)[C@H](C(C)C)NC(=O)[C@H](Cc2cccc(Cl)c2)N(C)C(=O)[C@H](CCC(=O)O)NC(=O)[C@H](C)NC(=O)CSC[C@@H](C(N)=O)NC(=O)[C@H](CCCNC(=N)N)NC(=O)[C@H](Cc2ccccc2)NC(=O)[C@H](CCCNC(=N)N)NC(=O)[C@H](CC(=O)O)NC(=O)[C@H]([C@@H](C)CC)NC1=O [compound 227] ({CH2CO}-AE[NMePhe(3-Cl)]V[NMeW]NYY(Me)IIDRFRC-NH2; thioether N-15)
- Kd [3]: 1 to 100 nM

SMILES: CC[C@H](C)[C@@H]1NC(=O)[C@H](Cc2ccc(O)cc2)NC(=O)[C@H](Cc2ccc(O)cc2)NC(=O)[C@H](CC(N)=O)NC(=O)[C@H](Cc2c[nH]c3ccccc23)NC(=O)[C@H](C(C)C)NC(=O)[C@H](Cc2ccccc2)NC(=O)[C@H](C(C)C)NC(=O)[C@H](C)NC(=O)CSC[C@@H](C(=O)NCCOCCOCCOCCOCCOCCOCCOCCOCCOCCOCCOCCOCCC(=O)N[C@@H](CCCCNC(=O)c2ccc(-c3c4ccc(=O)cc-4oc4cc(O)ccc34)c(C(=O)O)c2)C(N)=O)NC(=O)[C@H](Cc2c[nH]cn2)N(C)C(=O)[C@H](CO)NC(=O)[C@H](CCCNC(=N)N)NC(=O)[C@H](Cc2ccccc2)NC(=O)[C@H](CCCNC(=N)N)NC(=O)[C@H](CC(=O)O)NC(=O)[C@H]([C@@H](C)CC)NC1=O [compound 149] ({CH2CO}-AVFVWNYYIIDRFRS[NMeH]C[PEG12]K(X2)-NH2; thioether N-17)
- Kd [1]: 1 to 100 nM

SMILES: CC[C@H](C)[C@@H]1NC(=O)[C@H](Cc2ccc(O)cc2)NC(=O)[C@H](Cc2ccc(O)cc2)NC(=O)[C@H](CC(N)=O)NC(=O)[C@H](Cc2c[nH]c3ccccc23)NC(=O)[C@H](C(C)C)NC(=O)[C@H](Cc2ccccc2)NC(=O)[C@H](C(C)C)NC(=O)[C@H](C)NC(=O)CSC[C@@H](C(=O)NCCOCCOCCOCCOCCOCCOCCOCCOCCOCCOCCOCCOCCC(=O)N[C@@H](CCCCNC(=O)c2ccc(-c3c4ccc(=O)cc-4oc4cc(O)ccc34)c(C(=O)O)c2)C(N)=O)NC(=O)[C@H](CCCNC(=N)N)NC(=O)[C@H](Cc2ccccc2)NC(=O)[C@H](CCCNC(=N)N)NC(=O)[C@H](CC(=O)O)NC(=O)[C@H]([C@@H](C)CC)NC1=O [compound 148] ({CH2CO}-AVFVWNYYIIDRFRC[PEG12]K(X2)-NH2; thioether N-15)
- Kd [1]: 1 to 100 nM

Second part, the molecule after the results:

- Kd [2]: 1 to 100 nM
SMILES: CC[C@H](C)[C@@H]1NC(=O)[C@H](Cc2ccc(O)cc2)NC(=O)[C@H](Cc2ccc(O)cc2)NC(=O)[C@H](CC(N)=O)NC(=O)[C@H](Cc2c[nH]c3ccccc23)NC(=O)[C@H](C(C)C)NC(=O)[C@H](Cc2ccccc2)NC(=O)[C@H](C(C)C)NC(=O)[C@H](C)NC(=O)CSC[C@@H](C(N)=O)NC(=O)[C@H](Cc2ccc(O)cc2)N(C)C(=O)[C@H](Cc2ccc(O)cc2)NC(=O)[C@H](CCCNC(=N)N)NC(=O)[C@H](CCCNC(=N)N)NC(=O)[C@H](CCC(=O)O)NC1=O [compound 247]

- Kd [4]: < 1 nM
SMILES: CC[C@H](C)[C@@H]1NC(=O)[C@H](Cc2ccc(O)cc2)NC(=O)[C@H](Cc2ccc(O)cc2)NC(=O)[C@H](CC(N)=O)NC(=O)[C@H](Cc2c[nH]c3ccccc23)NC(=O)[C@H](C(C)C)NC(=O)[C@H](Cc2ccccc2)N(C)C(=O)[C@H](C(C)C)NC(=O)[C@H](C)NC(=O)CSC[C@@H](C(=O)NCCOCCOCCOCCOCCC(=O)N[C@H](CCCCNC(=O)c2ccc(-c3c4ccc(=O)cc-4oc4cc(O)ccc34)c(C(=O)O)c2)C(N)=O)NC(=O)[C@H](Cc2ccc(O)cc2)N(C)C(=O)[C@H](Cc2ccc(O)cc2)NC(=O)[C@H](CCCNC(=N)N)NC(=O)[C@H](CCCNC(=N)N)NC(=O)[C@H]([C@@H](C)CC)NC1=O [compound 446]

- Kd [2]: 1 to 100 nM
SMILES: CCC[C@@H]1NC(=O)[C@H](C)NC(=O)CSC[C@@H](C(=O)NCCOCCOCCOCCOCCC(N)=O)NC(=O)[C@H](Cc2ccc(O)cc2)N(C)C(=O)[C@H](Cc2ccccc2)NC(=O)[C@@H](CCCNC(=N)N)NC(=O)[C@H](CCCNC(=N)N)NC(=O)[C@H]([C@@H](C)CC)NC(=O)[C@H]([C@@H](C)CC)NC(=O)[C@H](Cc2ccc(OC)cc2)NC(=O)[C@H](Cc2ccc(O)cc2)NC(=O)[C@H](CC(N)=O)NC(=O)[C@H](Cc2c[nH]c3ccccc23)N(C)C(=O)[C@H](C(C)C)NC(=O)[C@H](Cc2cccc(Cl)c2)N(C)C1=O [compound 244] ({CH2CO}-A[Nva][NMePhe(3-Cl)]V[NMeW]NYY(Me)IIR[dR]F[NMeY]C[PEG4]-NH2; thioether N-15)

- Kd [2]: 100 to 1000 nM
SMILES: CC[C@H](C)[C@@H]1NC(=O)[C@H](Cc2ccc(O)cc2)NC(=O)[C@H](Cc2ccc(O)cc2)NC(=O)[C@H](CC(N)=O)NC(=O)[C@H](Cc2c[nH]c3ccccc23)NC(=O)[C@H](C(C)C)NC(=O)[C@H](Cc2ccccc2)NC(=O)[C@H](C(C)C)NC(=O)[C@H](C)NC(=O)CSC[C@@H](C(=O)NCC(=O)NCC(=O)N[C@@H](CO)C(=O)NCC(=O)N[C@@H](CO)C(=O)NCC(=O)N[C@@H](CCCCNC(=O)C2CCC(CN3C(=O)C=CC3=O)CC2)C(N)=O)NC(=O)[C@H](Cc2ccc(O)cc2)NC(=O)[C@H](Cc2ccccc2)NC(=O)[C@H](CCCNC(=N)N)NC(=O)[C@H](CCCNC(=N)N)NC(=O)[C@H]([C@@H](C)CC)NC1=O (some centres unmarked) [compound 262]

- Kd [2]: < 1 nM
SMILES: CC[C@H](C)[C@@H]1NC(=O)[C@H](Cc2ccc(O)cc2)NC(=O)[C@H](Cc2ccc(O)cc2)NC(=O)[C@H](CC(N)=O)NC(=O)[C@H](Cc2c[nH]c3ccccc23)N(C)C(=O)[C@H](C(C)C)NC(=O)[C@H](Cc2ccccc2)NC(=O)[C@H](C(C)C)NC(=O)[C@H](C)NC(=O)CSC[C@@H](C(N)=O)NC(=O)[C@H](Cc2ccc(O)cc2)N(C)C(=O)[C@H](Cc2ccc(O)cc2)NC(=O)[C@H](CCCNC(=N)N)NC(=O)[C@H](CCCNC(=N)N)NC(=O)[C@H]([C@@H](C)CC)NC1=O [compound 263]

- Kd [2]: 1 to 100 nM
SMILES: CC[C@H](C)[C@@H]1NC(=O)[C@H](Cc2ccc(OC)cc2)NC(=O)[C@H](Cc2ccc(O)cc2)NC(=O)[C@H](CC(N)=O)NC(=O)[C@H](Cc2c[nH]c3ccccc23)N(C)C(=O)[C@H](C(C)C)NC(=O)[C@H](Cc2cccc(Cl)c2)N(C)C(=O)[C@H](CCC(=O)N[C@H](CCC(=O)O)C(=O)O)NC(=O)[C@H](C)NC(=O)CSC[C@@H](C(N)=O)NC(=O)[C@H](Cc2ccc(O)cc2)N(C)C(=O)[C@H](Cc2ccccc2)NC(=O)[C@@H](CCCNC(=N)N)NC(=O)[C@H](CCCNC(=N)N)NC(=O)[C@H]([C@@H](C)CC)NC1=O [compound 241]

- Kd [4]: 1 to 100 nM
SMILES: CC[C@H](C)[C@@H]1NC(=O)[C@H](Cc2ccc(O)cc2)NC(=O)[C@H](Cc2ccc(O)cc2)NC(=O)[C@H](CC(N)=O)NC(=O)[C@H](Cc2c[nH]c3ccccc23)NC(=O)[C@H](C(C)C)NC(=O)[C@H](Cc2ccccc2)N(C)C(=O)[C@H](C(C)C)NC(=O)[C@H](C)NC(=O)CSC[C@@H](C(=O)NCC(=O)NCC(=O)NCC(=O)NCC(=O)N[C@@H](CO)C(=O)N[C@@H](CO)C(=O)N[C@@H](CSCC(=O)NC)C(N)=O)NC(=O)[C@H](Cc2ccc(O)cc2)N(C)C(=O)[C@H](Cc2ccc(O)cc2)NC(=O)[C@H](CCCNC(=N)N)NC(=O)[C@H](CCCNC(=N)N)NC(=O)[C@H]([C@@H](C)CC)NC1=O [compound 443]

- Kd (surface plasmon resonance, hTfR, read-out: KD value for hTfR by SPR (class symbol)): 1 to 100 nM
SMILES: CC[C@H](C)[C@@H]1NC(=O)[C@H](Cc2ccc(OC)cc2)NC(=O)[C@H](Cc2ccc(O)cc2)NC(=O)[C@H](CC(N)=O)NC(=O)[C@H](Cc2c[nH]c3ccccc23)N(C)C(=O)[C@H](C(C)C)NC(=O)[C@H](Cc2cccc(Cl)c2)N(C)C(=O)[C@H](C(C)C)NC(=O)[C@H](C)NC(=O)CSC[C@@H](C(N)=O)NC(=O)[C@H](Cc2ccc(O)cc2)N(C)C(=O)[C@H](Cc2ccccc2)NC(=O)[C@H](CCC(=O)N[C@H](CCC(=O)O)C(=O)O)NC(=O)[C@H](CCCNC(=N)N)NC(=O)[C@H]([C@@H](C)CC)NC1=O [compound 385]
